These results are taken from ChEMBL document CHEMBL5729797, “Compounds having tetrahydroindolizine-1-carboxamide as BCL-2 inhibitors” (2023).

Broadly, the IC50 is the point on the concentration scale where inhibition reaches its midpoint. A higher IC50 goes with weaker potency.

Where only a bound is given, the exact number is not on record here.

One experiment has as its target Bcl-2-like protein 1 (Homo sapiens, UniProt Q07817). Put plainly: BCL-XL TR-FRET Assay: The following assay concentrations and times were used: 10.5 ng BCL-XL, 5 μl of 1:100 anti-His Tb-labeled donor, 5 μl of 1:100 Dye-labeled acceptor, 5 μl of 1:80 BCL-XL Peptide Ligand, and 2 μl of test compound, with 60 min incubation time. The results of the assay were read using a Clariostar (BMG Labtech) plate reader with the following parameters: TR FRET, 340ex/620 and 665em; 60 μsec Delay; and 500 μsec integration.

For experiment [1], the target named is Apoptosis regulator Bcl-2 (Homo sapiens, UniProt P10415). The experiment in a line: BCL-2 TR-FRET Assay: The following assay concentrations and times were used: 3 ng BCL-2, 5 μl of 1:100 anti-His Tb-labeled donor, 5 μl of 1:100 Dye-labeled acceptor, 5 μl of 1:40 BCL-2 Peptide Ligand, and 2 ul of test compound, with 60 min incubation time. The results of the assay were read using a Clariostar (BMG Labtech) plate reader with the following parameters: TR FRET, 340ex/620 and 665em; 60 μsec Delay; and 500 μsec integration. On the technique in general: In TR-FRET formats the signal depends on donor and acceptor labels being close together.
Apoptosis regulator Bcl-2, sequence (P10415 whole entry): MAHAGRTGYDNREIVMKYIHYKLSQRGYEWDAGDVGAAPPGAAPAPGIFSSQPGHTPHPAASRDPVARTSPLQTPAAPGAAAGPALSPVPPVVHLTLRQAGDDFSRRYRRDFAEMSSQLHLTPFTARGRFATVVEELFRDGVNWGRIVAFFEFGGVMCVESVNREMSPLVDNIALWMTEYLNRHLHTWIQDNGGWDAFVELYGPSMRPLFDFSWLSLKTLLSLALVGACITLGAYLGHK

Bcl-2-like protein 1, sequence (Q07817 whole entry): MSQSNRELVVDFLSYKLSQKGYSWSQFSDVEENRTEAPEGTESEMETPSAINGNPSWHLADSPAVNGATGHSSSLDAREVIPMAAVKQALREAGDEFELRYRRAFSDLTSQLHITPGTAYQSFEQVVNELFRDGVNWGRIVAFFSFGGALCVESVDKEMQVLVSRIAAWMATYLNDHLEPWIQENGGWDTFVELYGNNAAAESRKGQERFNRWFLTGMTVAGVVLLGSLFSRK

On Bcl-2-like protein 1, `O=C(c1cc(-c2cc3c(cc2C(=O)N2Cc4ccccc4C[C@H]2CN2CCOCC2)OCO3)n2c1CCCC2)N(Cc1ccc(F)cc1)c1ccc(O)cc1` displayed an IC50 of more than 4 µM. Consider `O=C(c1cc(-c2cc3c(cc2C(=O)N2Cc4ccccc4C[C@H]2CN2CCOCC2)OCO3)n2c1CCCC2)N(Cc1ccccc1F)c1ccc(O)cc1`, for which the IC50 is less than 5 nM in experiment [1] and less than 2 µM on Bcl-2-like protein 1.
